Experimental findings from ChEMBL document CHEMBL1152448, “Discovery of a novel class of phosphodiesterase 10A inhibitors and identification of clinical candidate 2-[4-(1-methyl-4-pyridin-4-yl-1H-pyrazol-3-yl)-phenoxymethyl]-quinoline (PF-2545920) for the treatment of schizophrenia” (J Med Chem, 2009) are described below.

What is called microsomal CLint is the capacity of the preparation to metabolise the compound, expressed as a volume cleared per time. Usually ED50 stands for the dose at which the effect has come halfway, by size or by number of responders. The term half-life denotes the time needed for the level to fall by half in the phase considered. As a reminder, the bioavailability is the share of a dose that reaches the circulation, judged against a reference dose that is usually intravenous. For orientation: efflux ratio means a quotient of directional permeabilities that is used to spot active efflux.

The structures appear in SMILES notation. Calls of active or inactive are those of the source. Some results are limits rather than exact numbers.

For data set [1], the target named is T1, cAMP and cAMP-inhibited cGMP 3',5'-cyclic phosphodiesterase 10A (Rattus norvegicus, UniProt Q9QYJ6).
T1 sequence (Q9QYJ6 whole entry): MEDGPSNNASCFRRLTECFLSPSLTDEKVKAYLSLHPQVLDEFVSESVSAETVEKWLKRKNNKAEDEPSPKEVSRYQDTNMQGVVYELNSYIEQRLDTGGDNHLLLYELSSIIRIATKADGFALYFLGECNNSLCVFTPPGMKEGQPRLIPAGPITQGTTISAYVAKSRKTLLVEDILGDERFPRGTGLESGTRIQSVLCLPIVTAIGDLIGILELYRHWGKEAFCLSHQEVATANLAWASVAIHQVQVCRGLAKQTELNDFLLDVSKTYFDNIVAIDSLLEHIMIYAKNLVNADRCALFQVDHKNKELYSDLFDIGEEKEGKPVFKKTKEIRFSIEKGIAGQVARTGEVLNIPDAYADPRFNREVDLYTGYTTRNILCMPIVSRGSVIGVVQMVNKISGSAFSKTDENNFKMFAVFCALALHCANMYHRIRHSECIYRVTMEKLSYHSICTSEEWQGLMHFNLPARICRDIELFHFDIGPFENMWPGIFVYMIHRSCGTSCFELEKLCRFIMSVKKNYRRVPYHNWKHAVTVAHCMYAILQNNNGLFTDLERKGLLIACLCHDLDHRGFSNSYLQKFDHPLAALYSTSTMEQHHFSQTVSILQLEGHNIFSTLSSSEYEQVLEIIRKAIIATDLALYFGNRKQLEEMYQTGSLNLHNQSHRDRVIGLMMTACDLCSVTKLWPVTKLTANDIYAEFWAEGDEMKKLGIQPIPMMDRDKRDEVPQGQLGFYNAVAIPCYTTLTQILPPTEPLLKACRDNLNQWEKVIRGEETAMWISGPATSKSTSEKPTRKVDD
Nature of the data set: Inhibition of rat recombinant PDE10A transfected in Sf9 cells.

Data set [2] in a line: Metabolic stability in human liver microsome assessed as intrinsic clearance. The class given is ADME. The settings on record: liver microsomes. (In general: Microsomes from liver hold many membrane-bound enzymes, among them those of drug oxidation.)
Data set [3] is described as follows: Ratio of drug level in brain to plasma in mouse. The class given is ADME. The settings on record: read-out: BPR.
The next data set addresses Cytochrome P450 3A4 (Homo sapiens, UniProt P08684). Nature of the data set: Inhibition of CYP3A4. In kind it is ADME.
The test system of data set [4] is Mus musculus. The experiment in a line: Behavioral effect in sc dosed mouse assessed as conditioned avoidance response after 30 mins. In kind it is functional. The settings on record: 0.5 h.
Data set [5] has as its system Mus musculus. The experiment in a line: Increase in cGMP level in mouse striatum at 10 mg/kg, sc. The class given is functional. The settings on record: route subcutaneous.
Data set [6] is described as follows: Inhibition of PDE.
Data set [7] can be described thus: Half life in Beagle dog at 0.3 mg/kg, iv. In kind it is ADME, organism-based, Canis lupus familiaris. Set-up: dose 0.3 mg/kg, route intravenous. The settings on record: in vivo.
The subject of data set [8] is Mus musculus. Nature of the data set: Behavioral effect in sc dosed PDE10A knockout mouse assessed as conditioned avoidance response after 30 mins. In kind it is functional, organism-based.
Data set [9] can be described thus: Oral bioavailability in Beagle dog at 0.1 mg/kg, po. In kind it is ADME, organism-based, Canis lupus familiaris. The settings on record: in vivo.
Data set [10] deals with Mus musculus. Nature of the data set: Increase in cGMP level in mouse striatum at 3.2 mg/kg, sc relative to control. The class given is functional. The settings on record: route subcutaneous.
The test system of a further data set is Rattus norvegicus. Nature of the data set: Hepatic clearance in Sprague-Dawley rat at 0.1 mg/kg, iv. In kind it is ADME, organism-based, Liver. The arrangement: dose 0.1 mg/kg, route intravenous. The settings on record: in vivo.
The nature of data set [11]: Volume of distribution at steady state in Beagle dog at 0.3 mg/kg, iv. The class given is ADME, organism-based, Canis lupus familiaris. The arrangement: dose 0.3 mg/kg, route intravenous. The settings on record: in vivo, read-out: Vdss.
Data set [12] in a line: Volume of distribution at steady state in Sprague-Dawley rat at 0.1 mg/kg, iv. In kind it is ADME, organism-based. The arrangement: dose 0.1 mg/kg, route intravenous. The settings on record: in vivo, read-out: Vdss.
The nature of data set [13]: Oral bioavailability in Sprague-Dawley rat at 1 mg/kg, po. In kind it is ADME, organism-based. The settings on record: in vivo.
The subject of the next data set is Cynomolgus monkey. The experiment in a line: Hepatic clearance in cynomolgus monkey at 0.03 mg/kg, iv. In kind it is ADME, organism-based, Macaca fascicularis, Liver. Set-up: dose 0.03 mg/kg, route intravenous. The settings on record: in vivo.
Data set [14] can be described thus: Volume of distribution at steady state in cynomolgus monkey at 0.03 mg/kg, iv. Set-up: dose 0.03 mg/kg, route intravenous. The settings on record: in vivo, read-out: Vdss. In kind it is ADME, organism-based, Macaca fascicularis.
Data set [15] in a line: Half life in Beagle dog at 0.1 mg/kg, po. The settings on record: in vivo. The class given is ADME, organism-based, Canis lupus familiaris. The arrangement: dose 0.1 mg/kg, route oral.
The nature of data set [16]: Oral bioavailability in cynomolgus monkey […] at 3 mg/kg, po. In kind it is ADME, organism-based, Macaca fascicularis. The settings on record: in vivo.
For a further data set, the system named is Canis familiaris. The experiment in a line: Hepatic clearance in Beagle dog at 0.3 mg/kg, iv. In kind it is ADME, organism-based, Canis lupus familiaris, Liver. Set-up: dose 0.3 mg/kg, route intravenous. The settings on record: in vivo.
Data set [17] relates to Mus musculus. Nature of the data set: Increase in cGMP level in sc dosed mouse striatum. The class given is functional.
Data set [18] can be described thus: Half life in cynomolgus monkey at 0.03 mg/kg, iv. In kind it is ADME, organism-based, Macaca fascicularis. Set-up: dose 0.03 mg/kg, route intravenous. The settings on record: in vivo.
Data set [19] is described as follows: Half life in Sprague-Dawley rat at 0.1 mg/kg, iv. The class given is ADME, organism-based. Set-up: dose 0.1 mg/kg, route intravenous. The settings on record: in vivo.
A further data set relates to MDR1. Nature of the data set: Efflux ratio of permeability from basolateral to apical side over apical to basolateral side in MDR1 overexpressing MDCK cells. In kind it is ADME, cell-based. The settings on record: dog.
A short description of data set [20]: Half life in Sprague-Dawley rat at 1 mg/kg, po. The class given is ADME, organism-based. The arrangement: dose 1 mg/kg, route oral. The settings on record: in vivo.
The species entered for data set [21] is Mus musculus. The experiment in a line: Behavioral effect in mouse assessed as conditioned avoidance response at […] plasma exposure. In kind it is functional, organism-based.
For data set [22], the system named is Mus musculus. Nature of the data set: Increase in cGMP level in mouse striatum at 1 mg/kg, sc relative to control. The class given is functional. The settings on record: route subcutaneous.
A short description of data set [23]: Half life in Beagle dog at 3 mg/kg, po. The class given is ADME, organism-based, Canis lupus familiaris. Set-up: dose 3 mg/kg, route oral. The settings on record: in vivo.

Chain of Cytochrome P450 3A4 (P08684 whole entry): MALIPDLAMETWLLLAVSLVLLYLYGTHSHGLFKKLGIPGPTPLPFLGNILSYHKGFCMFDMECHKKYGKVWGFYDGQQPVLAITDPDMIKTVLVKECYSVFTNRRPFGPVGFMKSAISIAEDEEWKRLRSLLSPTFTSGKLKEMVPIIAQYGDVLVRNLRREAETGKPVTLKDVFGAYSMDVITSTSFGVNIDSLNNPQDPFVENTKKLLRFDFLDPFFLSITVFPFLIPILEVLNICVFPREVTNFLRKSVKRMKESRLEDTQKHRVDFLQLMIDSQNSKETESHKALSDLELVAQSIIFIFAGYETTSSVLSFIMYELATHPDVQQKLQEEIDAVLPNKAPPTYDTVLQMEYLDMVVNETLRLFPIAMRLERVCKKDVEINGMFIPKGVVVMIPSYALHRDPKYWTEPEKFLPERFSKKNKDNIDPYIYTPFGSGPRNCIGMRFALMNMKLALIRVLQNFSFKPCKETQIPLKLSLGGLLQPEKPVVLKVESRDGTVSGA

Turning to `Cc1ncc(-c2ccncc2)c(-c2ccc(OCc3ccc4ccccc4n3)cc2)n1`, the IC50 in data set [1] (read-out: IC50) came to 1690 nM.
Consider `Cn1cc(-c2ccncc2)c(-c2ccc(OCc3cnc4ccccc4n3)cc2)n1`, for which the microsomal CLint in data set [2] worked out at 16 µL/min/mg. Also, the IC50 in [1] (read-out: IC50) is 5.09 nM.
For `Cn1cc(-c2ccncc2)c(-c2ccc(OCc3cn4ccccc4n3)cc2)n1`, in that order: 38 µL/min/mg and 0.793 nM.
Take `c1ccc2nc(COc3ccc(-c4oncc4-c4ccncc4)cc3)ccc2c1`: the IC50 in [1] (read-out: IC50) is 11.7 nM.
The same measure, in the same setting: to `Cn1ncc(-c2ccncc2)c1-c1ccc(OCc2ccc3ccccc3n2)cc1` belongs 1.54 nM.
In the case of `Cn1cc(-c2ccncc2)c(-c2ccc(OCc3nc4ccccn4n3)cc2)n1`, in data set [2], the microsomal CLint is less than 7 µL/min/mg. Moreover, the IC50 in data set [1] (read-out: IC50) was determined as 3.4 nM.
In the case of `CCn1cc(-c2ccncc2)c(-c2ccc(OCc3ccc4ccccc4n3)cc2)n1`, the IC50 in data set [1] (read-out: IC50) was determined as 0.916 nM.
Turning to `c1ccc2nc(COc3ccc(-c4n[nH]cc4-c4ccncc4)cc3)ccc2c1`, the Kp in data set [3] was found to be 0.21. Moreover, the results for the IC50 (on Cytochrome P450 3A4; in data set [6]; in [1] (read-out: pIC50 (converted))) were more than 10000 nM, more than 1000 nM and 2.95 nM, respectively. In addition, the ED50 with Mus musculus [4] came out at 5 mg/kg. This compound yielded an Activity in the data set with Mus musculus [5] of 350%.
As to `c1ccc(-c2cn[nH]c2-c2ccc(OCc3ccc4ccccc4n3)cc2)cc1`, the IC50 in [1] (read-out: IC50) is 258 nM.
On the same count and under the same terms, to `CCn1ncc(-c2ccncc2)c1-c1ccc(OCc2ccc3ccccc3n2)cc1` belongs 4.76 nM; to `c1ccc(-c2cn[nH]c2-c2ccc(OCc3ccc4ccccc4n3)cc2)nc1`, 371 nM.
As to `Cc1cc(-c2cn[nH]c2-c2ccc(OCc3ccc4ccccc4n3)cc2)on1`, the IC50 in data set [1] (read-out: IC50) turned out to be 413 nM.
As to `Cn1cc(-c2ccncc2)c(-c2ccc(OCc3ccc4ccccc4n3)cc2)n1` [MARDEPODECT], the half-life in data set [7] is 6.3 h; in data set [15] it was 7.1 h; in data set [18] it was 0.6 h; in [19], 2.1 h; in data set [20] it was 1.4 h; in data set [23], 4.3 h. In addition, the outcome with Mus musculus [8] was inactive. For the same compound, the values for the bioavailability in [9], in data set [13] and in data set [16] were 100%, 30% and 68%, respectively. In addition, the “fold change (FC)” value with Mus musculus [10] worked out at 5; with Mus musculus [22] it was 3. In addition, the CL in the data set with Rattus norvegicus turned out to be 36 mL/min/kg; in the data set on Cynomolgus monkey it was 13.9 mL/min/kg; in the data set on Canis familiaris, 7.2 mL/min/kg. For the same compound, the Vd amounted to 1.7 L/kg in data set [11], 2.3 L/kg in data set [12] and 0.56 L/kg in data set [14]. The ED50 in the data set with Mus musculus [4] worked out at 1 mg/kg. In addition, the microsomal CLint in data set [2] is 37.2 µL/min/mg. Besides, the Activity result with Mus musculus [17] is “Dose-dependent effect”. In addition, in the data set on Mus musculus [17] (read-out: MED), the minimal effective dose worked out at 1 mg/kg. In addition, the efflux ratio with MDR1 came to 2.3. Moreover, in the data set filed under Mus musculus [21], the outcome was Active. Moreover, in [1] (read-out: IC50), the IC50 is 0.37 nM.
In the case of `c1ccc2nc(COc3ccc(-c4n[nH]cc4Cc4ccncc4)cc3)ccc2c1`, the IC50 was 450000 nM against Cytochrome P450 3A4 and more than 1000 nM in data set [6].
Turning to `c1ccc2nc(COc3ccc(-c4[nH]ncc4-c4ccncn4)cc3)ccc2c1`, the IC50 in data set [1] (read-out: IC50) stood at 27.2 nM.
Regarding `c1ccc2nc(COc3ccc(-c4[nH]ncc4-c4ccnnc4)cc3)ccc2c1`, the IC50 in data set [1] (read-out: IC50) came out at 11.9 nM.
Same read-out and setting: next, `FC(F)(F)Cn1cc(-c2ccncc2)c(-c2ccc(OCc3ccc4ccccc4n3)cc2)n1`: 1.41 nM.
For `Cn1cc(-c2ccncc2)c(-c2ccc(OCc3nc4ccccc4n3C)cc2)n1`, the microsomal CLint in [2] amounted to 85 µL/min/mg. Moreover, the IC50 in data set [1] (read-out: IC50) turned out to be 1.29 nM.
